Values quoted from earlier work, collected in patent publication US4163799A, “Psychostimulant compounds” (Union Chimique Continentale U.C.C., priority 1975, dated 1979).

Details: caffeine, comparison in words, no test described; cited from earlier work

Cn1c(=O)c2c(ncn2C)n(C)c1=O [caffeine]
antihypnotic effect: does
